Experimental data from US8795707B2, “Compliant composites for application of drug-eluting coatings to tissue surfaces” (Trustees of Boston University, priority 2008, dated 2014).

Legend:
[1] = Release of 10-hydroxycamptothecin from polymer-collagen composites; format: physicochemical; conditions: PBS at 37° C.
Method: Using the procedures from Example 2, a composite was constructed from a collagen-based scaffold with a poly(caprolactone) barrier layer and two 10-hydroxycaptothecin-loaded (2% w/w) poly(glycerol monostearate) layers. The composites were submerged in 0.150 mL of PBS at 37° C. At specific time points, an aliquot of release media was removed and the concentration of HCPT was measured by fluorescence spectroscopy (λEx=382 nm and λEm=550 nm, Photon Technology International QM-4/2005 spectrofluorimeter). A calibration curve was constructed from nine samples of known HCPT concentrations with linearity observed from 10 nM to 5 μM (R^2=0.999) from which the drug concentration of each aliquot was determined. After the completion of release, the HCPT remaining in each film was quantified. Films were dissolved CH2Cl2 to release encapsulated drug, the solvent evaporated, and PBS (150 mL) was added under rigorous stirring. The fluorescence spectrum was recorded and remaining drug measured.

[2] = tested on: 4T1 metastatic mammary mouse tumor cells; conditions: implants co-implanted with 4T1 cells; cited from earlier work
[3] = tested on: tumor; conditions: pouch sutured subcutaneously, loaded three days after tumor inoculation; 30 day observation period; cited from earlier work

With `CC[C@@]1(O)C(=O)OCc2c1cc1n(c2=O)Cc2cc3cc(O)ccc3nc2-1` [10-hydroxycamptothecin] the “HCPT released over the first 24 hours” value ([1]; collagen scaffold, poly(caprolactone) barrier, two 2% w/w HCPT layers) was “about 10%”, the “HCPT release rate after the first five weeks” value ([1]; same composite) was 0.5 % release per day and the “HCPT release rate, first two weeks” value ([1]; same composite) was 2 % loading per day. For the same compound, the “HCPT release rate, following three weeks” value ([1]; same composite) was “approximately 1 % per day” and the “duration of continued release detected” value ([1]; same composite) was “at least 6 weeks”.

In the case of `CC(C)CCCC(C)C1CCC2C3CC(C[131I])C4=C(CCC(O)C4)C3CCC12C` (stereo not shown) [^131I-norcholesterol], the “mice in which tumor growth was prevented” value [2] is listed as 69%.

In the case of `Nc1ccn([C@@H]2O[C@H](CO)[C@@H](O)C2(F)F)c(=O)n1` [gemcitabine], the “mice with no observable tumor mass” value [3] is listed as “Four of six”.
